Measurements reported in article PMC12261219, “Comparative Evaluation of Thiol- and Amine-Conjugating Moieties for Endogenous Albumin Binding after Intravenous Administration” (ACS Pharmacology & Translational Science, 2025).

Columns and labels:
[1] = Stability of oxaliplatin in PB at pH 7.4 (HPLC); type: physicochemical; conditions: pH 7.4, 20 °C
Description: The samples were incubated at 20 °C and measured over 25 h. […] RP-HPLC runs were performed using a Waters Acquity UPLC HSS T3 column (100 Å, 1.8 μm, 3.0 mm × 50 mm) on a Dionex Thermo Scientific UltiMate 3000 HPLC system, equipped with a HPG-3400RS binary pump and a DAD-3000RS UV–vis detector. Chromatograms were evaluated at a wavelength of 230 nm. Milli-Q water (mobile phase A) and acetonitrile (mobile phase B), both containing 0.1% TFA, were used as eluents. The flow rate was consistent at 0.6 mL/min for all measurements using the following gradient: 0–0.5 min A 99:1 B, 0.5–5.5 min linear gradient to A 1:99 B, 5.5–6.5 min A 1:99 B, 6.5–9.2 min A 99:1 B.

[2] = set-up: method as in Schueffl et al.; conditions: oxaliplatin data used from earlier paper, ref Schueffl et al., cited from earlier work
CT26 colon cancer cells = tested on: CT26 colon cancer cells; set-up: method as in Schueffl et al.; conditions: already described in earlier studies; ref Schueffl et al.; cited from earlier work
albumin = target: T1, albumin (Homo sapiens, UniProt P02768); set-up: method as in Barbas et al.; conditions: equimolar DFSA/albumin ratios; ref Barbas et al.; cited from earlier work
T1 construct: purchased Sigma-Aldrich A8763

[3] = serum platinum, i.v. 9 mg/kg oxaliplatin

T1 sequence (P02768 25-609): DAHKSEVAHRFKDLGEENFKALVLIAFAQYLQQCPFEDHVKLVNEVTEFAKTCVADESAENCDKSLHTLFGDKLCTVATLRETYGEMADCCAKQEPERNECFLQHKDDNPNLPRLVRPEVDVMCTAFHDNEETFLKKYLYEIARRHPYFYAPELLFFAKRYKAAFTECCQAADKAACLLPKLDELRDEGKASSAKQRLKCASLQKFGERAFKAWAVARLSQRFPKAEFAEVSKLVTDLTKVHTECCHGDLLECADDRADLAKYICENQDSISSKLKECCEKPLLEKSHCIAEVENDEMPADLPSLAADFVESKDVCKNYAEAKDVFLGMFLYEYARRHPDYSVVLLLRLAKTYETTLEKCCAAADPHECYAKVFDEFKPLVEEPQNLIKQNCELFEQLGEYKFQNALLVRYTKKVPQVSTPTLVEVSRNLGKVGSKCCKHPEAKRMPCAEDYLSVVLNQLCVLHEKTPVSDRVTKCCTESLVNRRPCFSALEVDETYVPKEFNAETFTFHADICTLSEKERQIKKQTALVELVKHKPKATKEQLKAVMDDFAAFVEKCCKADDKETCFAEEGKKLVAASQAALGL

Row | SMILES | Hydrolysis after 25 h [1] [%] | AUCPt_0-24 [2, 3] [mg·h/kg] | AUCPt_0-∞ [2, 3] [mg·h/kg] | Cmax ([2]; serum platinum, tmax=0.08 h) [mg/kg] | Half-life ([2]; terminal half-life) [h] | Vz ([2]; terminal phase) [kg/kg] | Percentage of AUCPt_0-∞ extrapolated from tlast to infinity ([2]; tlast=24 h) [%] | CL ([2]; total body clearance) [kg/h/kg] | Effect on overall survival in the CT26 model (CT26 colon cancer cells) | Albumin binding after 24 h (albumin)
1 | O=C1[O][Pt]2([NH][C@@H]3CCCC[C@H]3[NH]2)[O]C1=O [oxaliplatin] | ~15 | 26.6 | 37.5 | 6.17 | 14.3 | 2.42 | 29.0 | 0.118 | does not lead to prolonged overall survival | –
2 | O=C(O)C1=CCCCC1S(=O)(=O)Nc1ccc(F)cc1F (stereo not shown) [DFSA, 6-(N-(2,4-difluorophenyl)-sulfamoyl)-cyclohex-1-ene-1-carboxylic acid] | – | – | – | – | – | – | – | – | – | less than 25%
